Common to all, as to assay type: functional
Experiment [1] deals with T1, Ubiquitin-conjugating enzyme E2 N (Homo sapiens, UniProt P61088).
T1 sequence (P61088 whole entry): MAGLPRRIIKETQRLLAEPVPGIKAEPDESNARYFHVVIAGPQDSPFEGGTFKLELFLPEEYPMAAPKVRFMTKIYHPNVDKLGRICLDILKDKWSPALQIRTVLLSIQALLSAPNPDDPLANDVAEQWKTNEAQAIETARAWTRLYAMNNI

Experiment [2] addresses T2, Rac GTPase-activating protein 1 (Homo sapiens, UniProt Q9H0H5).
T2 sequence (Q9H0H5 whole entry): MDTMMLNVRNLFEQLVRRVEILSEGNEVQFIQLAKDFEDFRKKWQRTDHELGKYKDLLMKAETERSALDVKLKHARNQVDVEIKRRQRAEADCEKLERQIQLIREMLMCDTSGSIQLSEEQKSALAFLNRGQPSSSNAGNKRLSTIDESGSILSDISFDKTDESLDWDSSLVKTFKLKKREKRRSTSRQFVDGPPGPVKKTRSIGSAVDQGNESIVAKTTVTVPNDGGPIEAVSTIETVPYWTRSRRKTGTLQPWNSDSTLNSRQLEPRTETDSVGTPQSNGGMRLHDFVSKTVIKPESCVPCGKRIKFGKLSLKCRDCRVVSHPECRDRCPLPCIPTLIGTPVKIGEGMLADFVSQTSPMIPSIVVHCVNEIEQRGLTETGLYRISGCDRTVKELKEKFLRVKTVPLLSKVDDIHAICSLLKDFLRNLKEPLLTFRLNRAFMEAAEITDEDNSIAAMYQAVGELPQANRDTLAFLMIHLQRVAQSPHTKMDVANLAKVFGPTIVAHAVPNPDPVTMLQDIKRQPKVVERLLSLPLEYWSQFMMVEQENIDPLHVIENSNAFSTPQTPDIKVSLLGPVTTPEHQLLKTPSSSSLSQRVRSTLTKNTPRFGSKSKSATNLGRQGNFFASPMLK
Briefly: blockers of MgcRacGAP-driven Rac1 GTP hydrolysis – biochemical, ADP Hunter fluorescence, primary and confirmatory, confirmation (AID 624330).

Experiment [3] concerns the target 26S proteasome non-ATPase regulatory subunit 14 (Homo sapiens, UniProt O00487). Briefly: inhibition of proteasome subunit RPN11 – biochemical, fluorescence polarization, uHTS hits, confirmation (AID 602368). A general note: In fluorescence polarisation assays a small probe gives low polarisation when free and higher when bound to something large.
Experiment [4] can be described thus: NIH-3T3 fibroblast cytotoxicity, dose response, cytotoxicity control, cell-based, fluorescence, Alamar Blue, secondary assay (AID 2327).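 Further: NIH-3T3 mouse fibroblasts cultured with fluconazole at 8 µg/mL.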 On the technique in general: Resazurin is reduced to fluorescent resorufin, in cell work by metabolically active cells.
Another experiment deals with Prothrombin (Bos taurus, UniProt P00735). Briefly: thrombin protease inhibitors – biochemical, fluorescence polarization, uHTS hits, dose response (AID 602369).
In experiment [5] the target is T1, Ubiquitin-conjugating enzyme E2 N. This is another data set of the same source.
Experiment [6] addresses T3, Short transient receptor potential channel 4 (Mus musculus, UniProt Q9QUQ5).
T3 sequence (Q9QUQ5 whole entry): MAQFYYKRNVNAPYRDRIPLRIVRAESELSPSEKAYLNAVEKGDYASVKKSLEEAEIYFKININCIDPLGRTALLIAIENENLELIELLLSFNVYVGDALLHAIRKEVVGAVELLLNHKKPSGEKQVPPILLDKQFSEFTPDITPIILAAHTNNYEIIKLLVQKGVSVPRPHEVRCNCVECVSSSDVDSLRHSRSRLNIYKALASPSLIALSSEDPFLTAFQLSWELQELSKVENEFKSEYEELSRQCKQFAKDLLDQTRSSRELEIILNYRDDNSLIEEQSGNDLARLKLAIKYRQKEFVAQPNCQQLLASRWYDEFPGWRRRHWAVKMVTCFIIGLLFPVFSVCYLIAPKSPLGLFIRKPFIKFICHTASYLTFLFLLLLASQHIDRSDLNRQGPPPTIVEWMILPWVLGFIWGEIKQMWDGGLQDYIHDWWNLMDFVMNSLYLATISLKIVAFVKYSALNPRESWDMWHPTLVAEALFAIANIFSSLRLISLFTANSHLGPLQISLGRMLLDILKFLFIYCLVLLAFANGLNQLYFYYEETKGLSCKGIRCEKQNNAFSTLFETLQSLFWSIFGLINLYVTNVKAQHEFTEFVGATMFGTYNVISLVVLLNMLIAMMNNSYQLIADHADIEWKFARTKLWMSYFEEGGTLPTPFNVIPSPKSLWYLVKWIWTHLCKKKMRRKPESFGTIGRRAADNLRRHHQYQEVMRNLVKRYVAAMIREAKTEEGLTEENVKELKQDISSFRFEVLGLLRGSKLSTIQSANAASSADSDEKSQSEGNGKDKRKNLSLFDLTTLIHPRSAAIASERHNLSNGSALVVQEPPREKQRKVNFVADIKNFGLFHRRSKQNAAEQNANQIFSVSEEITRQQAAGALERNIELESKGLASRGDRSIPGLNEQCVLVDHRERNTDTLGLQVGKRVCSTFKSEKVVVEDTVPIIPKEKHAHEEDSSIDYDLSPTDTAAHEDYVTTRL
Briefly: calcium entry via TRPC4 opening agents – cell-based, HEK293 TRPC4/mu-opioid, Fluo-4 calcium, dose response (AID 434937).

Active and inactive are the calls of the source.

Sequence of 26S proteasome non-ATPase regulatory subunit 14 (O00487 whole entry): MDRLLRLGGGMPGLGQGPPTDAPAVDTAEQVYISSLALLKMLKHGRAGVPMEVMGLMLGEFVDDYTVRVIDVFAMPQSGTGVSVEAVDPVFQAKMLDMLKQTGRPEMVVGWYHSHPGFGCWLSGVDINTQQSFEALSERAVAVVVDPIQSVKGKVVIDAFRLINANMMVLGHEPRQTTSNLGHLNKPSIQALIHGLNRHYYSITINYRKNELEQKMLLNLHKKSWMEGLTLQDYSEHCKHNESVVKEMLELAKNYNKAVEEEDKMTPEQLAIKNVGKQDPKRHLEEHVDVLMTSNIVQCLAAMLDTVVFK

Turning to `N=C(N)N/N=C/c1ccc(N(c2ccccc2)c2ccccc2)cc1`, the IC50 (as a rule, the point on the concentration scale where inhibition reaches its midpoint) in experiment [1] was 8.24 µM (active); in experiment [2], 60.7 µM (active); in experiment [3] it was 18 µM (active); on Prothrombin, 41.8 µM (active); in experiment [5], 1.11 µM (active). Besides, the EC50 (commonly the concentration giving half of the maximal effect) in experiment [4] is 18.5 µM (inconclusive); in experiment [6], 9.44 µM (active).

The record behind these values is ChEMBL document CHEMBL1201862, “PubChem BioAssay data set” (2004).
